# From patent US8501806B2, “Methods for preventing or reducing colon carcinogenesis” (Nogra Pharma Limited, priority 2008, dated 2013)
# Assays:
# 4T1-derived metastasis = assay: 4T1 spontaneous metastasis, clonogenic metastasis assay; type: in vivo, Balb/c mice; settings: FIG. 11; daily i.p. 8 mg/kg/mouse, sacrificed at day 35
# Description: Spontaneous metastases were measured by adapting methods described previously by Pulaski and Ostrand-Rosenberg (Cancer Research 58, 1486-1493, 1998). 4T1 tumor cells (1×10^5 cells in 100 μl 1×PBS) were injected s.c. in the abdominal mammary gland of 8-10 weeks old female Balb/c mice. Three days after 4T1 injection, mice received daily i.p. administration of compound 14 (8 mg/kg/mouse) or PBS (control). Mice were monitored over the time for weight loss and sacrificed at day 35. Lungs and liver were removed from each mouse, and treated as follows: liver samples were finely minced and digested with an enzyme solution containing 1×PBS, 0.01% BSA, 1 mg/ml hyaluronidase, and 1 mg/ml collagenase type I for 20 min at 37° C. on a platform rocker; lung samples were finely minced and digested with an enzyme cocktail containing 1×PBS, 1 mg/ml collagenase type IV and 10 units/ml elastase for 1 h at […] on a rotating wheel. At the end, samples were filtered through 70 μm nylon cell strainers and washed three times with 1×PBS. The resulting cell preparations were resuspended and plated neat or serially diluted in 10-cm tissue culture dishes in 20 ml of medium containing 60 μM 6-thioguanine. Suspensions were incubated in 10% CO2-air atmosphere at 37° C. for clonogenic growth. […] Total colony-forming cells were calculated on a per-organ basis. […]
# HT-29 cells = assay: CFSE cell proliferation assay, HT-29 cells; type: cell-based, human; settings: FIG. 2; graded doses
# Description: All reagents used in Examples 1-3 were from Sigma-Aldrich (Milan, Italy) unless specified. Compounds were dissolved as a 25 mM stock solution in culture medium, and the pH of the solution was adjusted to 7.4, if necessary, with NaOH. The human CRC cell lines, HCT-116 and HT-29 (expressing either wild-type or mutated p53 respectively), were maintained in McCoy's 5A supplemented with 10% fetal bovine serum (FBS), 1% penicillin/streptomycin, and 50 μg/ml gentamycin. The murine CRC cell line, CT26, was maintained in RPMI 1640 medium supplemented with 10% FBS and 1% penicillin/streptomycin.
# For cell growth assays, serum-starved HCT-116, HT-29, and CT26 cells were plated in appropriate complete medium at 2×10^5 cells/ml/well in 6-well culture dishes and allowed to adhere overnight. Cells were then labeled with carboxyfluorescein diacetate succinimidyl ester (CFSE) (Invitrogen, Milan Italy) at 37° C. according to the manufacturer's instruction. After 30 minutes, the medium was removed and fresh media containing 0.05% bovine serum albumin (BSA), and increasing doses of 5-ASA or disclosed compounds were added. […] CFSE and/or PI-positive cells were determined by flow cytometry (Becton Dickinson, FACSCalibur, Milan, Italy). […] The percentage of proliferating cells was then evaluated by flow cytometry.
compound,measurement,setting,value
"COc1ccc(N)cc1C(=O)NO [compound 14, 2-methoxy-5-amino-N-hydroxybenzamide]",number of liver metastatic tumor cells,4T1-derived metastasis,reduction
same,number of lung metastatic tumor cells,4T1-derived metastasis,reduction
same,proliferation of HT-29 cells,HT-29 cells,dose-dependently inhibited
